Measured values taken from patent EP4745135A1 (Gluetacs Therapeutics (Shanghai) Co., Ltd., priority 2023, dated 2025).

Key:
[1] = tested on: Human breast cancer cell (MCF-7); assay: Tumor cell proliferation inhibition (CellTiter-Meiluncell luminescent cell viability assay); conditions: MCF7, 96 h; for inhibition at 0.01 µM: read-out: Inhibition Rate at 10 nM (%); for inhibition at 0.5 µM: read-out: Inhibition Rate at 500 nM (%)
GSPT1 = assay: Western blot, degradation of substrate protein in hPBMCs; type: cell-based, Human
[2] = molecular target: T1, human Cereblon WT GST-tagged protein (Homo sapiens, UniProt Q96SW2); assay: CRBN-binding affinity, HTRF (CEREBLON BINDING kit); conditions: for inhibition at 0.5 µM: read-out: Inhibition Rate at 0.5 µM (%); for inhibition at 2 µM: read-out: Inhibition Rate at 2 µM (%)
T1 construct: purchased CISBIO 64BDCRBNPEH
T1 sequence (Q96SW2 whole entry): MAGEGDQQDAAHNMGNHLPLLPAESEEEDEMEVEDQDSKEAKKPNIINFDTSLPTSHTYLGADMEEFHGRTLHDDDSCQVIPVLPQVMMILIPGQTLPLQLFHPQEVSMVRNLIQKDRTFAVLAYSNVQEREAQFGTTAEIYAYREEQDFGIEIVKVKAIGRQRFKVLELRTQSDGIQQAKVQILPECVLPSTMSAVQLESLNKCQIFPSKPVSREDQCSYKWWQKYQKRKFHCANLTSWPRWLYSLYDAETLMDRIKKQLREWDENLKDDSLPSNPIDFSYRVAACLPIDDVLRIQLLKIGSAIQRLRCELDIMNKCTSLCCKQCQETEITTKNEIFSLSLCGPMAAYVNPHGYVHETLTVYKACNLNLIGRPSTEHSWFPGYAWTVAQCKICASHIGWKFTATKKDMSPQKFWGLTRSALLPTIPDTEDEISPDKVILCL

[3] = tested on: Human myeloid monocytic leukemia cell (MV-4-11); assay: Tumor cell proliferation inhibition (CellTiter-Meiluncell luminescent cell viability assay); conditions: MV4-11, 96 h; for inhibition at 0.01 µM: read-out: Inhibition Rate at 10 nM (%); for inhibition at 0.5 µM: read-out: Inhibition Rate at 500 nM (%)
[4] = tested on: Human acute T lymphocytic leukemia cell (Molt4); assay: as above; conditions: MOLT-4, 96 h
[5] = tested on: Human multiple myeloma cell (MM.1S); assay: as above; conditions: for inhibition at 0.01 µM / inhibition at 0.5 µM: Homo sapiens, MM1.S, 96 h; for inhibition at 0.01 µM: read-out: Inhibition Rate at 10 nM (%); for inhibition at 0.5 µM: read-out: Inhibition Rate at 500 nM (%)
WEE1 = molecular target: T2, WEE1 (Homo sapiens, UniProt P30291+Q96SW2); assay: Western blot, degradation of substrate protein in hPBMCs; type: cell-based
T2 construct: effects of the compounds of the present disclosure on the expression of target proteins in cells; endogenous in cells; host or cells: human PBMCs (Milecell Biotechnologies)
T2 sequence (P30291 whole entry): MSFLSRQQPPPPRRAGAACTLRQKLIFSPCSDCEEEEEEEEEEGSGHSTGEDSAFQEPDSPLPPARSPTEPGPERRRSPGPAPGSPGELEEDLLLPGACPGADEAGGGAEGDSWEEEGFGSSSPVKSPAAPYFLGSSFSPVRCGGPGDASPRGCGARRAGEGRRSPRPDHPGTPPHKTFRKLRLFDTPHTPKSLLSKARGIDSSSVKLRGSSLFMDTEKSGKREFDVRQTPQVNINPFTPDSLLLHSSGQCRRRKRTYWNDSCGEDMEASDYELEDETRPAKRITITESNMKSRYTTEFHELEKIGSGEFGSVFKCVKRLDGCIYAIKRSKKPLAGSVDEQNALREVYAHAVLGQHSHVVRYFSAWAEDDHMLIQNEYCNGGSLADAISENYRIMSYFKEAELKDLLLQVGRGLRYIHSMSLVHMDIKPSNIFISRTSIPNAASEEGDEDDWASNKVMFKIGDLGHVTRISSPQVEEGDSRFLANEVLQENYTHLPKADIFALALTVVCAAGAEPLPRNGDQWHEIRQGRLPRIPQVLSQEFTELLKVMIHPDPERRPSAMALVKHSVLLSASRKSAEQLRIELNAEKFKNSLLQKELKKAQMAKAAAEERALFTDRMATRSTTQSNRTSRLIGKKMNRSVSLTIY
T2 sequence (Q96SW2 whole entry): as the sequence (Q96SW2 whole entry) above
T2 sequence (Q16531 whole entry partner): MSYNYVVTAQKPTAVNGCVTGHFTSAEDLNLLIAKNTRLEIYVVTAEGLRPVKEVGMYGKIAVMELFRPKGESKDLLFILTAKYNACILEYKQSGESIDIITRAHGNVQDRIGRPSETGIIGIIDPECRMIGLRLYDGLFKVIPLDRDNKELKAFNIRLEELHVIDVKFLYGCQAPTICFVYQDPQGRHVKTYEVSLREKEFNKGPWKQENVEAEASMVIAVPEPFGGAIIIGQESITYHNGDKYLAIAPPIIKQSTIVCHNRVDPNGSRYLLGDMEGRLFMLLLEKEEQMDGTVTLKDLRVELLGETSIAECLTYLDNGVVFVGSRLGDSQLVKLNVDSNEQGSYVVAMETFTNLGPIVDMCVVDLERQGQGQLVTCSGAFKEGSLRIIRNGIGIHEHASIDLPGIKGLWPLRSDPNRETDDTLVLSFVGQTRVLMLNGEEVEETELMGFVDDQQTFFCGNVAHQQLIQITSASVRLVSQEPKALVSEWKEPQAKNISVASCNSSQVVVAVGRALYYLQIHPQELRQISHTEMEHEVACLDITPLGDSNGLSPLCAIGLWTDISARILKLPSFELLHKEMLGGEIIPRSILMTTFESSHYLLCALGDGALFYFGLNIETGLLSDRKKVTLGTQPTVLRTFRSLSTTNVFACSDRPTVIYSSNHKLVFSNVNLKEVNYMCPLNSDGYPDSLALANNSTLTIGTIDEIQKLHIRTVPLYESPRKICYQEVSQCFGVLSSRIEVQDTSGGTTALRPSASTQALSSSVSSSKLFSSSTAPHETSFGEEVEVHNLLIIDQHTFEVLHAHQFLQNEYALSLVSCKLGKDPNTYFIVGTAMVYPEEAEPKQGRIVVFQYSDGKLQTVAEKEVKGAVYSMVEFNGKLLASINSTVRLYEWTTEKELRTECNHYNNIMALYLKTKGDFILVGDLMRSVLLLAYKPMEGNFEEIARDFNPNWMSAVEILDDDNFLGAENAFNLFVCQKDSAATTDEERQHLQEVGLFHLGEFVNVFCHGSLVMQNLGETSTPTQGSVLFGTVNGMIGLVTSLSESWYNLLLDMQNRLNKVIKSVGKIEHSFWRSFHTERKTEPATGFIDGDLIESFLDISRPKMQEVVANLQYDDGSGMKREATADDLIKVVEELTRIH

IKZF3 = molecular target: T3, IKZF3 (Homo sapiens, UniProt Q96SW2+Q9UKT9); assay: as above; type: cell-based
T3 construct: effects of the compounds of the present disclosure on the expression of target proteins in cells; endogenous in cells; host or cells: human PBMCs (Milecell Biotechnologies)
T3 sequence (Q9UKT9 whole entry): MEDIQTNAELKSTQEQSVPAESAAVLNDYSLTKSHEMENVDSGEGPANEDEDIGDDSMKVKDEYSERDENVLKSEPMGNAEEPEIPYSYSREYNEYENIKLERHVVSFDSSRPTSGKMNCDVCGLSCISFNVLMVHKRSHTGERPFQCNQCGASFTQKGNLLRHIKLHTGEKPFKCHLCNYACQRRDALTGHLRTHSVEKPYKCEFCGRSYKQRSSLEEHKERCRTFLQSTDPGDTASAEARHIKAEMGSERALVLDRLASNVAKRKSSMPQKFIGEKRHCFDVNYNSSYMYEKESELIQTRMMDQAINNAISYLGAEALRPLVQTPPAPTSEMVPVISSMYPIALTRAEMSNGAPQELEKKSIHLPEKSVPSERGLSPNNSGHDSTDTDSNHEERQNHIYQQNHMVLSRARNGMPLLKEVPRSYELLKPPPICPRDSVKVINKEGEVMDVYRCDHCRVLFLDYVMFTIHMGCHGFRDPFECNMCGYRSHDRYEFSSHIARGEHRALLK
T3 sequence (Q96SW2 whole entry): as the sequence (Q96SW2 whole entry) above
T3 sequence (Q16531 whole entry partner): as the sequence (Q16531 whole entry partner) above

IKZF2 = molecular target: T4, IKZF2 (Homo sapiens, UniProt Q96SW2+Q9UKS7); assay: as above; type: cell-based
T4 construct: effects of the compounds of the present disclosure on the expression of target proteins in cells; endogenous in cells; host or cells: human PBMCs (Milecell Biotechnologies)
T4 sequence (Q9UKS7 whole entry): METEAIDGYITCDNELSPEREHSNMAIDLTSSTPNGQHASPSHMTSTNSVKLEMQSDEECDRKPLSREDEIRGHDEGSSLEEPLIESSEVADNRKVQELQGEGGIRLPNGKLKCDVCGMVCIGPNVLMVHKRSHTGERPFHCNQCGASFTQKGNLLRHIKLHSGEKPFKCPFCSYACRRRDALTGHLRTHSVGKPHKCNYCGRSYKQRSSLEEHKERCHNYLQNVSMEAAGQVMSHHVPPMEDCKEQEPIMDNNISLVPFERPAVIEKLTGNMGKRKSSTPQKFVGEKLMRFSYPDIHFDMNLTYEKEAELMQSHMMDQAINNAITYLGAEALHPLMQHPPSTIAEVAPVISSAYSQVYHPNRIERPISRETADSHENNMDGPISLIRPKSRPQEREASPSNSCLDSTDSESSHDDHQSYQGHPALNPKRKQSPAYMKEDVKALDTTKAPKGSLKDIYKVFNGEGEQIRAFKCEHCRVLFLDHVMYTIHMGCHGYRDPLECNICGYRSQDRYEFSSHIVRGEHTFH
T4 sequence (Q96SW2 whole entry): as the sequence (Q96SW2 whole entry) above
T4 sequence (Q16531 whole entry partner): as the sequence (Q16531 whole entry partner) above

CK1α = molecular target: T5, CK1α (Homo sapiens, UniProt P48729+Q96SW2); assay: as above; type: cell-based
T5 construct: effects of the compounds of the present disclosure on the expression of target proteins in cells; endogenous in cells; host or cells: human PBMCs (Milecell Biotechnologies)
T5 sequence (P48729 whole entry): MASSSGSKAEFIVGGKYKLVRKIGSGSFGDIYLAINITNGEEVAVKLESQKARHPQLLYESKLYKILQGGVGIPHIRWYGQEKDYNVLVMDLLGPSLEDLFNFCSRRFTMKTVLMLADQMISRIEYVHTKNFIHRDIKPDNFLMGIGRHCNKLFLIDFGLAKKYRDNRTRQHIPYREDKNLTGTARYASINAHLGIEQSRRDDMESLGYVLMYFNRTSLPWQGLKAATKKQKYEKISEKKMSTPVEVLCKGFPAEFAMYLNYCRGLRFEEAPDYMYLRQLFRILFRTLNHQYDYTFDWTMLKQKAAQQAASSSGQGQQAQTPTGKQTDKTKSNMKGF
T5 sequence (Q96SW2 whole entry): as the sequence (Q96SW2 whole entry) above
T5 sequence (Q16531 whole entry partner): as the sequence (Q16531 whole entry partner) above

IKZF1 = molecular target: T6, IKZF1 (Homo sapiens, UniProt Q13422+Q96SW2); assay: as above; type: cell-based
T6 construct: effects of the compounds of the present disclosure on the expression of target proteins in cells; endogenous in cells; host or cells: human PBMCs (Milecell Biotechnologies)
T6 sequence (Q13422 whole entry): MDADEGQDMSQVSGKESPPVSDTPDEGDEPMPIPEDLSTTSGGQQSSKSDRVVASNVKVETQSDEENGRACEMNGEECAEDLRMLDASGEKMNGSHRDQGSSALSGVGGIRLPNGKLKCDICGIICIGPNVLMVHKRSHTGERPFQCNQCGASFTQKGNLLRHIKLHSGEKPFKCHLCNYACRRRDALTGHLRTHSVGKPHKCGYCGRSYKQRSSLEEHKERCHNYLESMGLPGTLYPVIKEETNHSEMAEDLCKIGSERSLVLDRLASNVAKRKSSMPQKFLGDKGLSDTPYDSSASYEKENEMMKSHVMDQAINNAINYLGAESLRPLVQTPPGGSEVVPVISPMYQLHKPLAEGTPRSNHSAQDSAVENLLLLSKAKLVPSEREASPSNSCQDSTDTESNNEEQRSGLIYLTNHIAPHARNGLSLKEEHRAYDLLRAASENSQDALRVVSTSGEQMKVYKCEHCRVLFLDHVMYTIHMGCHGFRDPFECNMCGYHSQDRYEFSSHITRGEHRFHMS
T6 sequence (Q96SW2 whole entry): as the sequence (Q96SW2 whole entry) above
T6 sequence (Q16531 whole entry partner): as the sequence (Q16531 whole entry partner) above

[6] = tested on: Human multiple myeloma peripheral blood B lymphocyte cell (RPMI-8226); assay: Tumor cell proliferation inhibition (CellTiter-Meiluncell luminescent cell viability assay); conditions: RPMI-8226, 96 h; for inhibition at 0.01 µM: read-out: Inhibition Rate at 10 nM (%); for inhibition at 0.5 µM: read-out: Inhibition Rate at 500 nM (%)
Description: The tumor cells used herein were cultured in a cell culture medium listed in table 2 at 37°C in an incubator with 5% CO2. Prior to experimentation, all cell lines used were correctly identified by STR profiling, and tested negative for mycoplasma contamination using a mycoplasma detection kit through routine screenings.
The IC50 values of the compounds of the present disclosure (including the compounds in Table 1 and Examples) were determined using the CellTiter-Meiluncell Luminescent Cell Viability Assay Kit from Dalian Meilun Biotech Co., Ltd. The detailed procedure is as follows: Tumor cells were seeded in 96-well cell culture plates at the densities specified in Table 3. On the following day, the test compounds of the present disclosure were subjected to serial dilution. The dilution can be performed according to one of the following two methods: • (1) The first dilution method: The test compounds of the present disclosure (including the compounds in Table 1 and Examples) were subjected to 5-fold serial dilutions starting from a highest concentration of 2000 µM, resulting in a total of 9 concentrations from high to low (2000, 400, 80, 16, 3.2, 0.64, 0.128, 0.0256, 0.00512 µM). Subsequently, 0.5 µL of the test compound dilution was transferred into the 96-well plate containing the cells, with each well containing 100 µL of cell culture medium. […] Into the 96-well plate, the diluted test compounds and corresponding detection reagents were added, resulting in final test compound concentrations of 500 nM and 10 nM, respectively. The experimental procedure is described below using the diluted 2 µM test compound as an example.
0.5 µL of the aforementioned diluted compound of the present disclosure (including the compounds in Table 1 and Examples) was added to the seeded cells in 100 µL of medium, yielding a final test compound concentration of 10 nM. After the cells were treated with the compounds of the present disclosure for a specified period, the cell viability assay reagent was added to the culture medium according to the kit's instructions to determine cell viability. […] All controls were treated using the same procedure as the compounds of the present disclosure. The growth inhibition curves for the compounds of the present disclosure were plotted using Prism GraphPad software, and the IC50 values were calculated therefrom.

[7] = 24 hours treatment, compounds at 50 nM and 500 nM (concentration behind the class not stated)
[8] = Western blot, 24 hours of compound treatment, compounds tested at 50 nM and 500 nM (concentration for the table not stated)

Compound | inhibition at 0.01 µM [1] | inhibition at 0.5 µM [1] | GSPT1 substrate protein remaining % (GSPT1; [7]) | inhibition at 0.5 µM [2] | inhibition at 2 µM [2] | inhibition at 0.01 µM [3] | inhibition at 0.5 µM [3] | inhibition at 0.01 µM [5] | inhibition at 0.5 µM [5] | Wee1 substrate protein remaining % (WEE1; [7]) | IKZF3 substrate protein remaining % (IKZF3; [7]) | IKZF2 substrate protein remaining % (IKZF2; [7]) | CK1α substrate protein remaining % (CK1α; [7]) | IKZF 1 substrate protein remaining % (IKZF1; [7]) | GSPT1 substrate protein remaining % (GSPT1; [8]) | Wee1 substrate protein remaining % (WEE1; [8]) | IKZF3 substrate protein remaining % (IKZF3; [8]) | IKZF2 substrate protein remaining % (IKZF2; [8]) | CK1α substrate protein remaining % (CK1α; [8]) | IKZF 1 substrate protein remaining % (IKZF1; [8]) | other results
Cn1cc(C2CCN(Cc3ccc4c(c3)CN(C3CCC(=O)NC3=O)C4=S)CC2)c2ccc(F)cc21 (stereo not shown) [GT-09267, 3-(5-((4-(6-fluoro-1-methyl-1H-indol-3-yl)piperidin-1-yl)methyl)-1-thioxoisoindolin-2-yl)piperidine-2,6-dione] | 5 to 10% | 70 to 80% | A (0% ≤ substrate protein remaining % ≤ 80%) | 53 to 60% | 80 to 100% | 80 to 100% | 80 to 100% | 70 to 80% | 80 to 100% | A (0% ≤ substrate protein remaining % ≤ 80%) | A (0% ≤ substrate protein remaining % ≤ 80%) | A (0% ≤ substrate protein remaining % ≤ 80%) | B (80%< substrate protein remaining %≤ 100%) | A (0% ≤ substrate protein remaining % ≤ 80%) | – | – | – | – | – | – | inhibition at 0.01 µM ([4]; read-out: Inhibition Rate at 10 nM (%)): 80 to 100%; inhibition at 0.5 µM ([4]; read-out: Inhibition Rate at 500 nM (%)): 80 to 100%
O=C1CCC(N2Cc3c(CN4CCC(N5C(=O)COc6cc(F)ccc65)CC4)cccc3C2=S)C(=O)N1 (stereo not shown) [GT-08853, 3-(4-((4-(7-fluoro-3-oxo-2,3-dihydro-4H-benzo[b][1,4]oxazin-4-yl)piperidin-1-yl)methyl)-1-thioxoisoindolin-2-yl)piperidine-2,6-dione] | 5 to 10% | 40 to 50% | B (80%< substrate protein remaining %≤ 100%) | 60 to 80% | 80 to 100% | – | – | 30 to 40% | 40 to 50% | B (80%< substrate protein remaining %≤ 100%) | A (0% ≤ substrate protein remaining % ≤ 80%) | B (80%< substrate protein remaining %≤ 100%) | B (80%< substrate protein remaining %≤ 100%) | B (80%< substrate protein remaining %≤ 100%) | – | – | – | – | – | – | –
O=C1CCC(N2Cc3c(CN4CC(C5CCOc6cc(F)ccc65)C4)cccc3C2=S)C(=O)N1 (stereo not shown) [GT-08859, 3-(4-((3-(7-fluorochroman-4-yl)azetidin-1-yl)methyl)-1-thioxoisoindolin-2-yl)piperidine-2,6-dione] | 50 to 60% | 40 to 50% | A (0% ≤ substrate protein remaining % ≤ 80%) | 53 to 60% | 80 to 100% | – | – | 30 to 40% | 50 to 60% | B (80%< substrate protein remaining %≤ 100%) | B (80%< substrate protein remaining %≤ 100%) | B (80%< substrate protein remaining %≤ 100%) | B (80%< substrate protein remaining %≤ 100%) | B (80%< substrate protein remaining %≤ 100%) | – | – | – | – | – | – | –
O=C1CCC(N2Cc3c(CN4CCN(c5n[nH]c6cc(F)ccc56)CC4)cccc3C2=S)C(=O)N1 (stereo not shown) [GT-08840, 3-(4-((4-(6-fluoro-1H-indazol-3-yl)piperazin-1-yl)methyl)-1-thioxoisoindolin-2-yl)piperidine-2,6-dione] | 50 to 60% | 60 to 70% | – | 60 to 80% | 80 to 100% | 40 to 60% | 40 to 60% | – | – | – | – | – | – | – | B (80%< substrate protein remaining %≤ 100%) | A (0% ≤ substrate protein remaining % ≤ 80%) | B (80%< substrate protein remaining %≤ 100%) | B (80%< substrate protein remaining %≤ 100%) | B (80%< substrate protein remaining %≤ 100%) | B (80%< substrate protein remaining %≤ 100%) | –
O=C1CCC(N2Cc3c(CN4CCN(CC5=C(c6ccc(F)cc6)CCCC5)CC4)cccc3C2=S)C(=O)N1 (stereo not shown) [GT-08293, 3-(4-((4-((4'-fluoro-3,4,5,6-tetrahydro-[1,1'-biphenyl]-2-yl)methyl)piperazin-1-yl)methyl)-1-thioxoisoindolin-2-yl)piperidine-2,6-dione] | – | – | – | 30 to 40% | 60 to 80% | – | – | – | – | – | – | – | – | – | B (80%< substrate protein remaining %≤ 100%) | A (0% ≤ substrate protein remaining % ≤ 80%) | B (80%< substrate protein remaining %≤ 100%) | B (80%< substrate protein remaining %≤ 100%) | B (80%< substrate protein remaining %≤ 100%) | B (80%< substrate protein remaining %≤ 100%) | inhibition at 0.01 µM [6]: 20 to 30%; inhibition at 0.5 µM [6]: 40 to 50%
O=C1CCC(N2Cc3c(CN4CCN(C(c5ccccc5)c5ccncc5)CC4)cccc3C2=S)C(=O)N1 (stereo not shown) [GT-08204, 3-(4-((4-(phenyl(pyridin-4-yl)methyl)piperazin-1-yl)methyl)-1-thioxoisoindolin-2-yl)piperidine-2,6-dione] | – | – | – | 40 to 53% | 80 to 100% | – | – | – | – | – | – | – | – | – | B (80%< substrate protein remaining %≤ 100%) | A (0% ≤ substrate protein remaining % ≤ 80%) | B (80%< substrate protein remaining %≤ 100%) | B (80%< substrate protein remaining %≤ 100%) | B (80%< substrate protein remaining %≤ 100%) | B (80%< substrate protein remaining %≤ 100%) | inhibition at 0.01 µM [6]: 60 to 70%; inhibition at 0.5 µM [6]: 70 to 80%
O=C1CCC(N2Cc3cc(CN4CCC(N5CCCc6cc(F)ccc65)CC4)ccc3C2=S)C(=O)N1 (stereo not shown) [GT-09271, 3-(5-((4-(6-fluoro-3,4-dihydroquinolin-1(2H)-yl)piperidin-1-yl)methyl)-1-thioxoisoindolin-2-yl)piperidine-2,6-dione] | 20 to 30% | 40 to 50% | – | 60 to 80% | 80 to 100% | 40 to 60% | 40 to 60% | – | – | – | – | – | – | – | – | – | – | – | – | – | –
Cc1ccc(N2CCN(Cc3cccc4c3CN(C3CCC(=O)NC3=O)C4=S)CC2)c(C)c1 (stereo not shown) [GT-08504, 3-(4-((4-(2,4-dimethylphenyl)piperazin-1-yl)methyl)-1-thioxoisoindolin-2-yl)piperidine-2,6-dione] | 20 to 30% | 40 to 50% | – | 30 to 40% | 60 to 80% | 40 to 60% | 40 to 60% | 30 to 40% | 50 to 60% | – | – | – | – | – | A (0% ≤ substrate protein remaining % ≤ 80%) | A (0% ≤ substrate protein remaining % ≤ 80%) | A (0% ≤ substrate protein remaining % ≤ 80%) | B (80%< substrate protein remaining %≤ 100%) | B (80%< substrate protein remaining %≤ 100%) | B (80%< substrate protein remaining %≤ 100%) | –
Cc1cc(N2CCN(Cc3ccc4c(c3)CN(C3CCC(=O)NC3=O)C4=S)CC2)cc(C)n1 (stereo not shown) [GT-09247, 3-(5-((4-(2,6-dimethylpyridin-4-yl)piperazin-1-yl)methyl)-1-thioxoisoindolin-2-yl)piperidine-2,6-dione] | 20 to 30% | 40 to 50% | – | 60 to 80% | 80 to 100% | 40 to 60% | 40 to 60% | 50 to 60% | – | – | – | – | – | – | – | – | – | – | – | – | Inhibition Rate at 500 nM (%) ([5]; MM.1S, 500 nM, 96 hours): la7
